Laboratory results: patent US20160184230A1, “MELT-PROCESSED POLYMERIC CELLULAR DOSAGE FORM” (priority 2014, published 2016)

Assay: Compression tests of solid excipient (ASTM D695-10)
Format: physicochemical
Conditions: compression-molded sample
Protocol: Compression tests were performed on pure PEG and PEO specimen. The ASTM standard test method for compressive properties of rigid plastics, ASTM D695-10, was used as the protocol to execute compression tests. The testing machine was a Zwick Roell Z2.5 with a 2.5 kN load cell (Zwick GmbH & Co. KG, Ulm, Germany), equipped with compression platens. A speed of 1.3 mm/min was applied for the platens to move relatively towards each other.

Compressive strength: 0.8 MPa
Strain at fracture: <0.02
SMILES: OC[C@@H](O)[C@@H](O)[C@H](O)[C@H](O)CO [Mannitol]
